Laboratory results: patent US20130281512A1, “AGENTS FOR TREATING DISORDERS INVOLVING MODULATION OF RYANODINE RECEPTORS” (LES LABORATOIRES SERVIER, priority 2012, published 2013)

Target: T1, RyR1 (Mus musculus, UniProt E9PZQ0)
T1 construct: RyR1 from aged (24 months) mice is oxidized, cysteine-nitrosylated, and depleted of calstabin1; host or cells: mice (in vivo)
Test: Calstabin1 rebinding to RyR1 in isoproterenol treated mice
Assay type: in vivo
Details: isoproterenol 0.5 mg/kg/hr plus compound in osmotic pumps, five days; compared with 3.6 mM S36
Source text: Isoproterenol, a beta adrenergic receptor agonist, induces heart failure in mice via overstimulation of the beta adrenergic receptor. Concurrent with this is the activation of PKA, phosphorylation of the RyR2 on the SR, and decreased interaction of calstabin2 (FKBP12.6) to RyR2. A similar cascade of events occurs in skeletal muscle, wherein RyR1 is phosphorylated, leading to decreased binding of calstabin1 (FKBP12) to RyR1.
As described in detail in International publication no. WO2008/064264, the contents of which are incorporated by reference herein, chronic isoproterenol treatment to a wild-type mouse offers a fast and reliable method for inducing changes in RyR biochemistry that could be readily quantified. These changes include increased RyR phosphorylation and concomitant decreased calstabin binding.
C57Bl/6 mice were maintained and studied according to approved protocols. The synthetic beta-adrenergic agonist, isoproterenol (ISO) was obtained from Sigma (165627) and prepared as a 100 mg/ml stock in water. […]
The loaded osmotic pumps were implanted subcutaneously by the following steps. The recipient mouse was anesthetized with 1.5-2% isoflurane in O2 administered at 0.6 L/min, and its weight was then measured and recorded. […]

T1 sequence (E9PZQ0 whole entry): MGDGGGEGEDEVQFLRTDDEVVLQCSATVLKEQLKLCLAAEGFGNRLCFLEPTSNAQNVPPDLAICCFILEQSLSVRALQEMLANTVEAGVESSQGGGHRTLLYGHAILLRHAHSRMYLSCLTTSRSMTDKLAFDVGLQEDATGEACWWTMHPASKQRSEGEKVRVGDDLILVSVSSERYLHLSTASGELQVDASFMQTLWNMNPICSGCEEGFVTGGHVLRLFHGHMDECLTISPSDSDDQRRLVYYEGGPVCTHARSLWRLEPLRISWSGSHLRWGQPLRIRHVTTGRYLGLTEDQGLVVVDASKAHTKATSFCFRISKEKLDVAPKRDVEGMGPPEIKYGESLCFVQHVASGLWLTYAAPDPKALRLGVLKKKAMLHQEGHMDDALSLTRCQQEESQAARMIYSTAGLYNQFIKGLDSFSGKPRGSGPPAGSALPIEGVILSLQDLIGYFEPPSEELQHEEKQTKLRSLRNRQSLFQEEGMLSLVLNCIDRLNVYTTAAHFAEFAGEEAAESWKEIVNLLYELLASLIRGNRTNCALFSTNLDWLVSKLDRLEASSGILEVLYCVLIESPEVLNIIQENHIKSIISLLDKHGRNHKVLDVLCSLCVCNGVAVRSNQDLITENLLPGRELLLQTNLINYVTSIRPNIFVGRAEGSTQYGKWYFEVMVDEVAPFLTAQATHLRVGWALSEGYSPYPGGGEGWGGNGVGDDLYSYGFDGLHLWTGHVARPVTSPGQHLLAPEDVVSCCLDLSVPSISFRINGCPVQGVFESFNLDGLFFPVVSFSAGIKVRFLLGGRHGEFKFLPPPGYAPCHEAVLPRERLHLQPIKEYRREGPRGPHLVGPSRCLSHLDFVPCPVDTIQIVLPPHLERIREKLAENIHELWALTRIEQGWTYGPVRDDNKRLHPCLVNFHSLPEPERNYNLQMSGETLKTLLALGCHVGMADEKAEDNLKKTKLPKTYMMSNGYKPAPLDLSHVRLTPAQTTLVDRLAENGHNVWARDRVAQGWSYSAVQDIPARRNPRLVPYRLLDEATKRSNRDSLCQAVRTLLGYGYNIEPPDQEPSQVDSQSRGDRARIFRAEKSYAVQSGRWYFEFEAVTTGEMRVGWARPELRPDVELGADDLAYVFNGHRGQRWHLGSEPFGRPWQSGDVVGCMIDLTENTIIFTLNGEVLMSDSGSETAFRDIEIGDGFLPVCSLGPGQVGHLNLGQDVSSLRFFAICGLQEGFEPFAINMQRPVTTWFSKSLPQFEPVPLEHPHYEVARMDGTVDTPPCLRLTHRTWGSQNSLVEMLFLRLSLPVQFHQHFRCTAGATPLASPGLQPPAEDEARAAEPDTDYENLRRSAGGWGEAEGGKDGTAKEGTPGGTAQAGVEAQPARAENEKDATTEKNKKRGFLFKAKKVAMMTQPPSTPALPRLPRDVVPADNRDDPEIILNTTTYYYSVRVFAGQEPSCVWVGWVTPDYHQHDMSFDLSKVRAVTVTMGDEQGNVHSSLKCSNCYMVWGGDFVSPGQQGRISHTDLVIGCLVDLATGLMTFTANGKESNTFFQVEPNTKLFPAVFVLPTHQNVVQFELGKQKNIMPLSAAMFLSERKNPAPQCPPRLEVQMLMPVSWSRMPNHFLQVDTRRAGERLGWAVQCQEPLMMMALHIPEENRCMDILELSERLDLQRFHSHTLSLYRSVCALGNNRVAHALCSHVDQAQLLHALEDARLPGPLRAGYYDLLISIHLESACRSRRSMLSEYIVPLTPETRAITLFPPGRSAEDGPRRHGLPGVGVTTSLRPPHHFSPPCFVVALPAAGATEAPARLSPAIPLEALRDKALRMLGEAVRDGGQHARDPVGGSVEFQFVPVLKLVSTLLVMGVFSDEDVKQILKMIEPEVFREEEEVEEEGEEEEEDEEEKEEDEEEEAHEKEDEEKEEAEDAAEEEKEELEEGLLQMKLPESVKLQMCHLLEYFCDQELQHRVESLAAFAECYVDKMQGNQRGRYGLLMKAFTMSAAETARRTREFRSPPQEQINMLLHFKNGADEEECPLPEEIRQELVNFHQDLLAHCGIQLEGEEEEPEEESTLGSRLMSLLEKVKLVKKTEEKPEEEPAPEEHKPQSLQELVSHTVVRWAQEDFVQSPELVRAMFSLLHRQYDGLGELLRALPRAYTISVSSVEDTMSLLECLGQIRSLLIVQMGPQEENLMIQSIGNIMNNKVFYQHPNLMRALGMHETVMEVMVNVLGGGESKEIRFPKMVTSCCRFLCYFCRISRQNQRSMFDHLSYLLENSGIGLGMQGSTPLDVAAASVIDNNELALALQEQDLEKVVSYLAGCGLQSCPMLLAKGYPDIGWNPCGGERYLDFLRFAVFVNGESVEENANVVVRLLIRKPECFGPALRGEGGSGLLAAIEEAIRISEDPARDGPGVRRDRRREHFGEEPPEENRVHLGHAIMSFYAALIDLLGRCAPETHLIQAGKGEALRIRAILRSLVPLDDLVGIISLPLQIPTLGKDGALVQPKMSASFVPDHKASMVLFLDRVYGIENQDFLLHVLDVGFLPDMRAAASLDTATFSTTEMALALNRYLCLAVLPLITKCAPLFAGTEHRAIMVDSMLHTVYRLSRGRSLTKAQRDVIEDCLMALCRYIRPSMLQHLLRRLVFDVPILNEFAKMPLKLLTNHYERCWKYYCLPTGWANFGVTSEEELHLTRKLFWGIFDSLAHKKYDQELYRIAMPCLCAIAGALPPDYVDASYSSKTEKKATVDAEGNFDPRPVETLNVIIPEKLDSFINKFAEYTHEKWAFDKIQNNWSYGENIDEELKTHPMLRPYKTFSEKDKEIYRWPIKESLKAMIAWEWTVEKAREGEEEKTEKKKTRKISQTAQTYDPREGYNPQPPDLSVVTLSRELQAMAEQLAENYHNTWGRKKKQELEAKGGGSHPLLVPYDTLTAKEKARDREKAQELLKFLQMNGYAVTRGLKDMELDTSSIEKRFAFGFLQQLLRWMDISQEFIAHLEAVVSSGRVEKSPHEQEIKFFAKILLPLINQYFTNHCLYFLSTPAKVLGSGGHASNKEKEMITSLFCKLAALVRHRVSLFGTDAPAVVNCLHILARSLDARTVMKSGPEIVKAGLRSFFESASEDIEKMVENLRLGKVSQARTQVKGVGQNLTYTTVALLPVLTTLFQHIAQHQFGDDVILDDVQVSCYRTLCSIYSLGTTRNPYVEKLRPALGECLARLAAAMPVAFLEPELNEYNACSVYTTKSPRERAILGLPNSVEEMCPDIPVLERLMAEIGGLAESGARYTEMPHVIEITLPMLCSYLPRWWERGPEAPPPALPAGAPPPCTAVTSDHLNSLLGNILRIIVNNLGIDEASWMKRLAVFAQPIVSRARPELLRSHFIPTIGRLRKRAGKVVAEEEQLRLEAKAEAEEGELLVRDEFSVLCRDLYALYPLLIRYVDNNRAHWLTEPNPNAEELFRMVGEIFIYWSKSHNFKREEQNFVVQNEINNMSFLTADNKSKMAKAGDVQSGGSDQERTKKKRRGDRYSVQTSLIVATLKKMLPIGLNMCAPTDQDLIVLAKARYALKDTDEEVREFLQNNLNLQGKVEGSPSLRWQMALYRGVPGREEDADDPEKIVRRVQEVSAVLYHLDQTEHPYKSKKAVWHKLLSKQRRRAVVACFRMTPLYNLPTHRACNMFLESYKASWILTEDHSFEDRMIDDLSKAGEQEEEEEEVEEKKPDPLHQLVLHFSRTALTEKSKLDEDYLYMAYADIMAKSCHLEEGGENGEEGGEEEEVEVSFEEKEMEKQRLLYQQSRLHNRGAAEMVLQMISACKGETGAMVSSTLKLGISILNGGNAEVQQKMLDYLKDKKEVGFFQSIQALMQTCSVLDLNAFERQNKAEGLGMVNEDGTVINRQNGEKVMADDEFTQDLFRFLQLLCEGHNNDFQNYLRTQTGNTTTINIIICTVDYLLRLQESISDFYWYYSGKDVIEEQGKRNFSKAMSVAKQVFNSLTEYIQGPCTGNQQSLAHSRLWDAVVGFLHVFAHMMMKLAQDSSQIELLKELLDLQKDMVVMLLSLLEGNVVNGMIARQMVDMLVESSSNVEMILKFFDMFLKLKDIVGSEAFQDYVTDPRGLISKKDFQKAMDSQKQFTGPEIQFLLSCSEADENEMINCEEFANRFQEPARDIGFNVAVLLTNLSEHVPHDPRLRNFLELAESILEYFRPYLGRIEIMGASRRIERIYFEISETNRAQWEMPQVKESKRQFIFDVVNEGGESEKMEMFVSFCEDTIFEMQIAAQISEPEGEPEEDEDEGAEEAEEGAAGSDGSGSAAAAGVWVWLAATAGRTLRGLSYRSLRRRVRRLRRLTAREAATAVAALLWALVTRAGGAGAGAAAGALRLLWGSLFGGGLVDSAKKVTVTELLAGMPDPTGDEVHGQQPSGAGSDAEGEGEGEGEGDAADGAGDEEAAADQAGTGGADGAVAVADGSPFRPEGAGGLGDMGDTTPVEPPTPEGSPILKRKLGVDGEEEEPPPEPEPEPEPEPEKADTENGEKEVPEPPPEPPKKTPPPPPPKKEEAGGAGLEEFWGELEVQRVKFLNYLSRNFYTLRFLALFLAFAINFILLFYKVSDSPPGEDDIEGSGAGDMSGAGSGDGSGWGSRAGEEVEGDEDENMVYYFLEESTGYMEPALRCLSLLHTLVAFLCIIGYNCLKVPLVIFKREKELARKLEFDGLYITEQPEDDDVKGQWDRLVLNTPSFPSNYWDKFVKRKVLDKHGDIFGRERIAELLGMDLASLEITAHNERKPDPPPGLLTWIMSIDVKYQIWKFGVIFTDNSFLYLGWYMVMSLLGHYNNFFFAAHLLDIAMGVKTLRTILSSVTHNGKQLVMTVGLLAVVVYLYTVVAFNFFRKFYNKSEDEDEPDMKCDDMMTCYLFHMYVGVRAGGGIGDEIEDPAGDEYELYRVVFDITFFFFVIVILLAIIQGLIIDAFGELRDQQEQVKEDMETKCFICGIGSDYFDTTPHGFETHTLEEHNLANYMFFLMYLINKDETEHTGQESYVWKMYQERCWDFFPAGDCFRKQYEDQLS
T1 sequence (P26883 2-108 partner limits assumed): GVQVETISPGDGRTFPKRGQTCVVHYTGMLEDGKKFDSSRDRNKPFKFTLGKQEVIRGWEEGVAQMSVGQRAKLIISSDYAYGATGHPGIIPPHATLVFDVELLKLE

**Q.** COc1ccc2c(c1)CN(Cc1ccc(C(=O)O)cc1)CCS2 [Compound 1, 4-((7-Methoxy-2,3-dihydrobenzo[f][1,4]thiazepin-4(5H)-yl)methyl)benzoic acid] was tested. Which “levels of calstabin1 bound to RyR1 in skeletal muscle” value did it give?
**A.** enhanced levels of calstabin1 bound to RyR1
